Values after ≈ are worked out from the molar mass of the structure shown.
Experiments:
[1] = test system: Mutant mice (CNTNAP2 and SHANK3 mouse models); assay: Sociability test, 7-NI-treated mutant mice (Example 3); format: in vivo; conditions: 7-NI IP 80 mg/kg/day for 7 days; mutant mice vs vehicle
Experimental: (§1) Behavioral testing started after 2 hours of treatment.
Three-chambered sociability test (see, FIG. 4B): Sociability and preference for social novelty and social recognition were tested in a three-chambered apparatus. The subjected mouse was first placed in the central, neutral chamber and allowed to explore for 10 minutes with all the doors closed. Next, doors were opened and the mouse was allowed to freely explore the other two empty chambers (1 and 2) for an additional 10 minutes. Lack of side preference was confirmed during this habituation.
Two cylindrical wire cages were placed, one in chamber 1 and the other in chamber 2. For the sociability test, the test animal was introduced to the middle chamber and allowed to adjust for 5 minutes. Then, an unfamiliar mouse was introduced into a wire cage in one of the side-chambers, and the other side-chamber remained empty. The time spent by the test mouse exploring the wire cage with an unfamiliar mouse inside was recorded for 5 minutes.
7-nitroindazole (7-NI) is a selective inhibitor of neuronal nitric oxide synthase. Mutant mice were administered with 7-NI […] (IP), 80 mg/kg/day for 7 days, as described hereinabove. […]

[2] = test system: 3-nitrotyrosine; assay: Western blot of 3-nitrotyrosine in cortical tissue, CNTNAP2(-/-) mutant group (M2); format: in vivo, mouse; conditions: CNTNAP2(-/-) mutant mice treated with 7-NI (M2+7-NI) vs M2
Experimental: as §1
To further corroborate these findings, the expression of 3-nitrotyrosine in cortical tissue of the wild type (WT), compared with the SHANK3 mutant group (M1), and SHANK3 group treated with 7-NI (M1+7-NI), and in cortical tissue of the wild type (WT), compared with the CNTNAP2^(−/−) mutant group (M2), and the CNTNAP2^(−/−) mutant group treated with 7-NI (M2+7—NI) was tested, and the obtained data is presented in FIGS. 3C-D (for M1) and in FIGS. 3E-F (for M2).

[3] = test system: 3-nitrotyrosine; assay: Confocal microscopy of 3-nitrotyrosine in cortical neurons, SHANK3 model mice; format: in vivo, mouse; conditions: cortical region, compared to neurons of untreated mice
Experimental: FIGS. 3G-H present confocal microscopy images (FIG. 3G) and a quantitative bar graph (FIG. 3H) showing nitro-tyrosine in the cortical region of neurons of wild-type mice (WT), SHANK3 model mice (M1) and SHANK3 model mice treated with 7-NI (M1+7-NI).
3-nitrotyrosine levels in were also evaluated by confocal microscopy of the cortical region in neurons of the tested mice, and the obtained data is presented in FIGS. 3G and 3H.

[4] = test system: SH-SY5Y cells; assay: Nitrite (Griess) assay in SH-SY5Y cells; format: cell-based, human; conditions: 7-NI 100 μM 24 hours or 20 nM nNOS siRNA 24 hours
Experimental: (§2) Human NB SH-SY5Y cells were obtained from the American Type Culture Collection (ATCC) and maintained in Dulbecco's modified Eagle's medium (DMEM) and Ham's F-12 (1:1) supplemented with 10% fetal bovine serum, 2 mM L-glutamine, and 100 U/ml penicillin-G/100 […] streptomycin in a humidified atmosphere (37° C., 5% CO2). Cells were plated onto 25 cm^2 and 75 cm^2 plates at a density of 7.0×10^5 and 2.1×10^6 cells/cm^2 respectively for Western blotting (WB) and 1×10^5 for immunofluorescence. The SH-SY5Y cells were treated with 100 μM 7-nitroindazole (7-NI) for 24 hours (Fujibayashi et al., 2015). This concentration was confirmed in a dose-response experiment (FIG. 14A) using an MTT viability assay.
(§3) SH-SY5Y cells were plated in 6 well plates, as well as on 22 mm^2 coverslips at a density of 6.0×10^4 cells/cm^2 and transfected with 20 nM nNOS siRNA (NOSIHSS1072, Invitrogen) for 24 hours, with the use of Lipofectamine RNAi MAX (56530, Invitrogen) according to the manufacturer's protocol. Then cells were washed with phosphate-buffered saline (PBS) and harvested for WB and fixed for immunofluorescence (Fujibayashi et al., 2015).
Released NO was measured with Griess assay Kit (Sigma-Aldrich, Cat. No. 23479) using the manufacturer's instructions.

[5] = test system: SH-SY5Y cells; assay: Western blot of 3-nitrotyrosine, mTOR signaling pathway components and synaptophysin; format: cell-based, human
Experimental: as §2, §3
Cells were lysed in ice-cold RIPA buffer containing 50 mM Tris-HCl, 1% Nonidet P-40, 0.25% sodium deoxycholate, 150 mM NaCl, protease-, and phosphatase inhibitor cocktails, pH 7.4. After sonication, the lysates were centrifuged at 17,000 g for 30 minutes at 4° C., and the supernatant was collected. The protein concentrations were determined with the BCA protein assay. Proteins were resolved by SDS-PAGE, transferred to a PVDF membrane, and probed with the following antibodies: anti-pMTOR (rabbit, diluted 1:1000), anti-mTOR (rabbit, diluted 1:1000), anti-TSC2 (rabbit, diluted 1:1000), anti-nNOS (rabbit, diled 1:1000), anti-pAKT (rabbit, diluted 1:1000), anti-AKT (rabbit, diluted 1:1000), anti-pRPS6 (rabbit, diluted 1:1000), anti-RPS6 (mouse, diluted 1:1000), anti-synaptophysin (mouse, diluted 1:1000), anti-β-actin (rabbit, diluted 1:1000), anti-3-Nitrotyrosine (rabbit, diluted 1:5000) from Abcam. All primary antibodies, except anti-3-Nitrosine, were purchased from Cell Signaling Technology. The blots were then visualized using an enhanced chemiluminescence (ECL) system (Choi et al., 2018).

[6] = Solubility of 7-nitroindazole in PNL formulation of Table 1; format: physicochemical; conditions: PNL formulation of Table 1, clear liquid
Excerpt: Table 1 below presents an exemplary PNL formulation according to some embodiments of the present invention.
The formulation can be prepared by mixing the components at room or elevated temperature to form a clear liquid which 7-nitroindazole is soluble in at about 20% w/v.

[7] = cited from earlier work
[8] = physchem; conditions: organic solvent or mixture
[9] = 7-NI 100 μM 24 hours or nNOS silencing

O=[N+]([O-])c1cccc2cn[nH]c12 [7-NI, 7-nitroindazole]
time interacting with the stranger cage (sociability test) [1]: spent significantly more time interacting with the stranger cage | expression of 3-Ntyr in cortical tissue [2]: reduced the expression of 3-Ntyr | reduction of 3-nitrotyrosine levels in the neurons [3]: about 50% | nitrite content (Griess assay) [4]: reduction of nitrite content | levels of synaptophysin (Syp, Western blot) ([5]; 7-NI 100 μM 24 hours or genetic ablation of nNOS): significantly decreased the levels of synaptophysin | 3-Ntyr levels (Western blot) ([5]; 7-NI 100 μM 24 hours or nNOS knockdown): halved | levels of TSC-2 (Western blot) [5, 9]: significant increase in the levels of TSC-2 | phosphorylation of RPS6 (Western blot) [5, 9]: reduced | phosphorylation of mTOR (Western blot) [5, 9]: decrease in phosphorylation of mTOR | phosphorylation of protein kinase-B (AKT) (Western blot) [5, 9]: reduced | solubility in PNL formulation [6]: about 20 % w/v | solubility in aqueous medium [7]: very low solubility | solubility [8]: 32 mg/mL (≈ 196 mM)
